Measurements published in the supplement of paper PMC4862054.

Key:
Conditions in all cases: incubation time: 72 h
[1] = system: SK-BR-3; experiment: normalised response (% of control), CellTiter-Glo; higher = more viable cells (100 = DMSO, 0 = benzethonium chloride kill control)
Summary of the method: (§1)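 Normalised signals at single concentrations make up the values. They come from breast cancer cell lines seeded (20 µl suspension) into 384-well plates with compound at 5 concentrations in 10-fold steps over a compound-specific 10,000-fold range, incubated 72 h, and read for CellTox Green fluorescence then CellTiter-Glo luminescence. Each plate was normalised to 0.1 % DMSO (100) and a positive kill control (0).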

[2] = system: MCF-10A; experiment: as above
Summary of the method: as §1

[3] = system: Hs578T; experiment: as above
Summary of the method: as §1

[4] = system: HCC1143; experiment: as above
Summary of the method: as §1

[5] = system: CAL-85-1; experiment: as above
Summary of the method: as §1

[6] = system: CAL-148; experiment: as above
Summary of the method: as §1

[7] = system: BT-474; experiment: as above
Summary of the method: as §1

[8] = system: MDA-MB-468; experiment: as above
Summary of the method: as §1

[9] = system: HDQ-P1; experiment: as above
Summary of the method: as §1

[10] = system: BT-549; experiment: as above
Summary of the method: as §1

[11] = system: HCC1937; experiment: as above
Summary of the method: as §1

[12] = system: DU-4475; experiment: as above
Summary of the method: as §1

[13] = system: HCC1599; experiment: as above
Summary of the method: as §1

[14] = system: CAL-120; experiment: as above
Summary of the method: as §1

[15] = system: MFM-223; experiment: as above
Summary of the method: as §1

[16] = system: MDA-MB-436; experiment: as above
Summary of the method: as §1

[17] = system: MDA-MB-453; experiment: as above
Summary of the method: as §1

[18] = system: CAL-51; experiment: as above
Summary of the method: as §1

[19] = system: MDA-MB-231; experiment: as above
Summary of the method: as §1

[20] = system: MCF-10A; experiment: normalised response (% of control), CellTox Green; higher = less cell death (100 = DMSO, 0 = benzethonium chloride kill control)
Summary of the method: as §1

[21] = system: Hs578T; experiment: as above
Summary of the method: as §1

[22] = system: HCC1143; experiment: as above
Summary of the method: as §1

[23] = system: CAL-85-1; experiment: as above
Summary of the method: as §1

[24] = system: CAL-148; experiment: as above
Summary of the method: as §1

[25] = system: BT-474; experiment: as above
Summary of the method: as §1

[26] = system: MDA-MB-468; experiment: as above
Summary of the method: as §1

[27] = system: HDQ-P1; experiment: as above
Summary of the method: as §1

[28] = system: BT-549; experiment: as above
Summary of the method: as §1

[29] = system: HCC1937; experiment: as above
Summary of the method: as §1

[30] = system: DU-4475; experiment: as above
Summary of the method: as §1

[31] = system: HCC1599; experiment: as above
Summary of the method: as §1

[32] = system: CAL-120; experiment: as above
Summary of the method: as §1

[33] = system: MFM-223; experiment: as above
Summary of the method: as §1

[34] = system: MDA-MB-436; experiment: as above
Summary of the method: as §1

[35] = system: MDA-MB-453; experiment: as above
Summary of the method: as §1

[36] = system: CAL-51; experiment: as above
Summary of the method: as §1

[37] = system: MDA-MB-231; experiment: as above
Summary of the method: as §1

| Structure (SMILES) | normalised response [1] | normalised response [2] | normalised response [3] | normalised response [4] | normalised response [5] | normalised response [6] | normalised response [7] | normalised response [8] | normalised response [9] | normalised response [10] | normalised response [11] | normalised response [12] | normalised response [13] | normalised response [14] | normalised response [15] | normalised response [16] | normalised response [17] | normalised response [18] | normalised response [19] | normalised response [20] | normalised response [21] | normalised response [22] | normalised response [23] | normalised response [24] | normalised response [25] | normalised response [26] | normalised response [27] | normalised response [28] | normalised response [29] | normalised response [30] | normalised response [31] | normalised response [32] | normalised response [33] | normalised response [34] | normalised response [35] | normalised response [36] | normalised response [37] |
| --- | --- | --- | --- | --- | --- | --- | --- | --- | --- | --- | --- | --- | --- | --- | --- | --- | --- | --- | --- | --- | --- | --- | --- | --- | --- | --- | --- | --- | --- | --- | --- | --- | --- | --- | --- | --- | --- |
| CO[C@H]1C[C@@H]2CC[C@@H](C)[C@@](O)(O2)C(=O)C(=O)N2CCCC[C@H]2C(=O)O[C@H]([C@H](C)C[C@@H]2CC[C@@H](OCCO)[C@H](OC)C2)CC(=O)[C@H](C)/C=C(\C)[C@@H](O)[C@@H](OC)C(=O)[C@H](C)C[C@H](C)/C=C/C=C/C=C/1C [Everolimus] (10 nM) | 53.7% | 79.2% | 71.9% | 62.6% | 67.1% | 51.9% | 80.7% | 52.1% | 78.7% | 64.9% | 69.7% | 68.2% | 88.8% | 64.9% | 62.6% | 77.8% | 55.2% | 61.6% | 85.7% | 106% | 85.6% | 109% | 109% | 88% | 99.8% | 178% | 105% | 51% | 114% | 96% | 91.6% | 101% | 71.1% | 81.7% | 104% | 97.5% | 103% |
| COc1ccccc1S(=O)(=O)Nc1ccc2c(c1)CN(C)C(=O)N2 [PFI-1] (1000 nM) | 103% | 98.6% | 85% | 94.1% | 87% | 107% | 89.8% | 95% | 91.9% | 76.9% | 90.9% | 97.7% | 86.7% | 91.3% | 97.8% | 93.9% | 91.1% | 87.7% | 89.2% | 105% | 98.2% | 95% | 121% | 103% | 98.7% | 140% | 109% | 111% | 91.9% | 107% | 110% | 111% | 87.8% | 115% | 121% | 116% | 105% |
| C/C(=C\c1csc(C)n1)[C@@H]1C[C@@H]2O[C@]2(C)CCC[C@H](C)[C@H](O)[C@@H](C)C(=O)C(C)(C)[C@@H](O)CC(=O)O1 [Patupilone] (100 nM) | 17.4% | 61.4% | 39.6% | 42.8% | 25.8% | 37.4% | 75.1% | 26.2% | 74.6% | 16.3% | 75.9% | 72.4% | 102% | 71.4% | 86.8% | 35.4% | 71.8% | 24.4% | 73% | 77.1% | 96.1% | 103% | 38.6% | 50.5% | 58.5% | -2.53% | 71.9% | 90.3% | 81.2% | 94.5% | 95.6% | 77.9% | 84.1% | 40.1% | 93.6% | 36.3% | 65.7% |
| NS(=O)(=O)OC[C@@H]1C[C@@H](n2ccc3c(N[C@H]4CCc5ccccc54)ncnc32)C[C@@H]1O [Pevonedistat] (1000 nM) | 35.5% | 107% | 73.2% | 61.2% | 49.9% | 118% | 63.6% | 33% | 89.3% | 34.6% | 83.3% | 0.82% | 40% | 61.9% | 59.5% | 34.6% | 80.6% | 21.2% | 71% | 115% | 85% | 96.1% | 86.6% | 104% | 101% | 49.4% | 104% | 85% | 72.7% | 76.2% | 95% | 96.4% | 102% | 80.8% | 99.4% | -16% | 106% |
| CN1CCN(CCOc2cc(OC3CCOCC3)c3c(Nc4c(Cl)ccc5c4OCO5)ncnc3c2)CC1 [Saracatinib] (1000 nM) | 92.7% | 41.5% | 96.1% | 74.6% | 61.7% | 84.1% | 71.1% | 79.2% | 53.2% | 89.9% | 83.3% | 94% | 119% | 81.9% | 89.7% | 93.9% | 88.2% | 74.3% | 64.6% | 106% | 83.4% | 76.8% | 68.5% | 99.3% | 96.4% | 181% | 86.8% | 93% | 86.5% | 98.9% | 96% | 96.6% | 93.9% | 77.6% | 101% | 68.5% | 77.6% |
| Cn1cncc1[C@@](N)(c1ccc(Cl)cc1)c1ccc2c(c1)c(-c1cccc(Cl)c1)cc(=O)n2C [Tipifarnib] (1000 nM) | 59.4% | 86.9% | 80.6% | 80.5% | 110% | 66.8% | 80.5% | 74.9% | 76.4% | 75.1% | 74.5% | 66.4% | 111% | 79.4% | 73.8% | 65.1% | 73.8% | 52.2% | 90.6% | 73.9% | 108% | 110% | 98.8% | 96% | 100% | 105% | 102% | 136% | 45.6% | 95.6% | 90.8% | 97.4% | 101% | 94.4% | 107% | 57.2% | 103% |
| CC[C@]1(O)C[C@H]2CN(CCc3c([nH]c4ccccc34)[C@@](C(=O)OC)(c3cc4c(cc3OC)N(C=O)[C@H]3[C@@](O)(C(=O)OC)[C@H](OC(C)=O)[C@]5(CC)C=CCN6CC[C@]43[C@@H]65)C2)C1 [Vincristine] (100 nM) | 13.6% | 72.7% | 24.1% | 60.9% | 40.8% | 47.8% | 58.5% | 32.9% | 79.3% | 42.1% | 72.8% | 71.1% | 21.6% | 63.2% | 45.8% | 28.6% | 57.9% | 46.3% | 53.2% | -44.4% | 62.5% | 94.3% | 69.3% | 82.8% | 75.3% | 38.5% | 93% | 44.2% | 62.1% | 100% | 82.2% | 86.3% | 15.3% | 73.6% | 97.3% | 40.1% | 3.37% |
